# Results published in US20140170236A1, “USE OF PHOSPHORIC ACID” (priority 2010, published 2014).
# Read-outs that look alike come from different tables or passages of the source.
# How the values were obtained:
# [1] = system: calcified plaque in the coronary arteries
# From the text: A coronary computed tomography (CT) calcium scan is a test to assess the build up of plaque (calcification) in the coronary arteries. Because calcium is a component of hard plaque and is a marker of coronary artery disease (CAD) such a scan can be used as a diagnostic tool for CAD. The amount of calcium detected on a CT scan, expressed as a calcium score, reflects the degree and extent of calcium deposits on the walls of coronary arteries. Once calcified plaque begins to accumulate on arterial walls the amount deposited increases logarithmically at a rate of 15% to 30% a year.
# The calcium score is an indicator of potential heart risk. […] A higher score is indicative of an increased risk and cardiologists express concern of the possibility of a heart incident at various levels but especially at 400 or above. Some treatments such as the product Crestor®, claim to slow the rate of deposition of plaque.
# (§1) The subject then took a 2.5 mL daily dose of a 23.8% (mg/L) solution of phosphoric acid composition comprising 183 mg of phosphorus for a period of twelve months. This represented 26% of the RDA of phosphorous (700 mg) for an adult.
# (§2) The risk assessment assumed that the calcified plaque would increase at the usual anticipated rate of approximately 15% to 30% a year. They took a daily dose of 2.5 ml of a 23.8% (mg/L) phosphoric acid in water, (183 mg of phosphorus) for a period of six months. […] A third CT calcium scan was performed approximately three months after increasing the dose. This was eight months and twenty days after the initial dosing with phosphoric acid.
# The subject takes Famotadine for acid reflux and continues to smoke “one or two cigars a week.” The subject began taking a daily dose of 3.75 ml of a 23.8% (mg/L) phosphoric acid solution.
# They currently take lipid lowering medication. They began taking 3.75 ml of a 23.8% (mg/L) phosphoric acid solution shortly after […] CT Calcium Scan.
# Their medications includes: Benicar®, Crestor®, Niaspan®, and Lovaza®. Two and a half months after having the first Calcium Score assessment they began taking a daily dose of 3.75 ml of a 23.8% (mg/L) phosphoric acid solution. […] Note, cadaver studies consistently indicate that smokers are more prone to advanced artery disease.
# calcified plaque = conditions: Example 1 subject; two years after angiogram that showed extensive calcified plaque
# Experimental: (§3) The cardiac interventionist prescribed the same kind of drug therapy as above. A stress test was conducted at this time to provide a baseline for comparing with possible future stress tests.
# as §1
# coronary condition = conditions: Example 1 subject; after twelve months of 2.5 mL daily (183 mg phosphorus); baseline stress test positive
# Experimental: as §3, §1
# [2] = system: soft plaque in the arteries; conditions: Example 2 subject; at the time of the third CT calcium scan; no CTA scan before treatment
# From the text: At the same time the most recent CT calcium scan was done, a Computed Tomography Angiography (CTA) scan was also done with contrast dye to determine the amount of soft plaque in the arteries.
# [3] = Experimental: as §2
# [4] = Example 1 subject; 2.5 mL daily (183 mg phosphorus)
structure (smiles),measurement,setting,value
O=P(O)(O)O [phosphoric acid],% Whose Ca Score Increased,"[1]; All, sample size 5",20%
same,calcium score,"[1]; Example 1 subject (man, stent), 2.5 mL daily of 23.8% (mg/L) solution, 183 mg phosphorus, after one year, no base score",29
same,probability of a heart attack in the next 10 years,"[1]; Example 1 subject, after one year of 2.5 mL daily (183 mg phosphorus)",10%
same,calcium score,"[1]; Example 2 subject, initial score 181, 2.5 ml daily (183 mg phosphorus), second CT scan at six months",181
same,calcium score,"[1]; Example 2 subject, initial score 181, third scan eight months and twenty days after initial dosing, about three months after increase to 3.75 ml (274 mg phosphorus)",179
same,calcium score,"[1]; Example 3 subject, initial score 193, 3.75 ml daily of 23.8% (mg/L) solution, approximately six months",122
same,reduction of calcium score,"[1]; Example 3 subject, 193 to 122, approximately six months of 3.75 ml daily",37%
same,calcium score,"[1]; Example 4 subject, initial score 85, 3.75 ml of 23.8% (mg/L) solution, eight months",83
same,calcium score lower than the initial score,"[1]; Example 4 subject, 85 to 83, eight months",2 points
same,annual rate of increase of calcium score,[1]; Example 5 subject,13.4%
same,calcium score,"[1]; Example 5 subject (heavy smoker), initial score 117, 3.75 ml daily of 23.8% (mg/L) solution, eight months after start",130
same,increase of calcium score,"[1]; Example 5 subject, 117 to 130",11%
same,% Whose Ca Score Increased,"[1]; Non-Smokers, sample size 4",0%
same,% Whose Ca Score Increased,"[1]; Smokers, sample size 1",100%
same,calcified plaque on CT Angiogram,calcified plaque,no calcified plaque except in the area of the stent
same,second stress echo test result,coronary condition,negative
same,soft plaque score,[2],0
same,side-effects related to the phosphoric acid composition,"[3]; Example 1 subject, 2.5 mL daily (183 mg phosphorus)",no side-effects
same,side effects at the higher dose level,"[3]; Example 2 subject, daily dose 3.75 ml (274 mg phosphorus)",no side effects
same,bone density on bone scan,[4],normal bone density
